Two compounds from patent US20240139149A1, “THERAPEUTIC USES OF UROLITHIN DERIVATIVES” (Vandria SA, priority 2022, published 2024) can be followed below.

Entries after “also recorded” stand apart in the source; their conditions may differ.

In experiment [1] the test system is CEA-CAR T cells / CEA-expressing human CRC organoids. Briefly: CEA-CAR T cells exposed to UA and killing of human CRC organoids. It counts as cell-based.
In experiment [2] the test system is aged mice injected with Aβ1-42. The experiment can be described thus: Mouse model of Alzheimer's disease, intrahippocampal injection of Aβ1-42 oligomers. It counts as in vivo. The protocol: A total of 18-month-old C57BL6 male mice were included in the study (n=12 per group). The animals were housed up to 4 to a cage, in clear polycarbonate cages with a stainless steel mesh lid and floor in a day/night inversed cycle (12 h/12 h). Drinking water and food were supplied ad libitum to each cage. The animals were kept for a period of acclimation of a minimum of 5 days before any handling.
All mice were subjected to surgery and were injected with 2 μL of vehicle or of A 1-42 solution. Aβ1-42 peptide (Bachem) was dissolved in the vehicle, at an initial concentration of 100 μM (the mother preparation was characterized by automatic WB, and precisely contained 15% of AβO). This solution was gently agitated for 3 days at 37° C. in the dark before any use until the day of the surgery.
The Aβ1-42 preparation was bilaterally injected into the […] of the CA1 area of the hippocampus (at three different depths). A total of 2 μL/side of A 1-42 preparation (100 μM), or vehicle, were bilaterally injected with a Hamilton syringe in the CA1 area of the hippocampus (0.2 μL/min with an Elite Nanomite syringe pump).
Vehicle (0.5% carboxy methyl cellulose (CMC)) or 33 at 1 mg/kg/d was administrated daily by gavage (per os: p.o). The treatment started 1 day after the surgery (D+1) and lasted until the end of the study (D+27). The study was stopped 4 weeks after the surgery (on D28).
The week before the surgery, a training session was performed, for habituation (5 minutes) to the maze. Fourteen (14) days after the surgery, mice were tested for short-term memory deficit in the Y-maze test.
The test was based on two trials: • Trial 1. Mice were allowed to freely explore two arms of the Y-maze during 5 min. The third arm remained closed during the trial. At the end of the 5 min, the animal was placed for 3 min in an empty cage. The Y-maze was cleaned with acetic acid to neutralize odors. • Trial 2. Mice were then allowed to freely explore the three arms of the Y-maze during 5 min. This trial corresponds to the test session.
Both trials were recorded by a video camera using Ethovision system (Noldus). The following items were automatically recorded: a) total distance in the Y-maze and b) the time spent in each arm.
At the end of the experiment (on day 28), 5 mice per group were deeply anesthetized and plasma samples were collected. Mice were then perfused with cold PBS (3 minutes), and cold paraformaldehyde (PFA) 4% in PBS (for 3 minutes).
Six (n=6) brain sections per animal were processed and incubated for 24 hours at 4° C. or 2 hours at room temperature with selected antibodies (Abs). The following antibodies were used: • NeuN: Rabbit polyclonal antibody anti-NeuN (1/1000). • Iba1: Rabbit polyclonal antibody anti-Iba1 (1/500). • Tau phospho Ser212/Thr214 (AT100): Mouse monoclonal antibody anti-AT100 (1/200).
Images were acquired with a confocal microscope LSM 900 with Zen software at 20× magnification (Zeiss) using the same acquisition parameters (automatic acquisition). […] The following read-outs were measured: • Number of NeuN positive pyramidal cells in the CA1 area. • Activation of Iba1-positive microglial cells in the CA1 area. • Activation of AT100 positive neurons in the CA1 area.
Results were analyzed using GraphPad Prism software version 8.0.2. *p<0.05 after a One-way or Two-way ANOVA followed by Fisher's test was considered significant.

Another experiment has as its system mouse T lymphocytes. Briefly: Mitochondrial content (Mitotracker positive cells) in mouse T lymphocytes. It counts as cell-based. As to conditions: 2 μM, 72 h. Here is the method: Splenic murine T cells were isolated from mice aged 6-20 weeks by negative selection with EasySep mouse T cell isolation kit (Stem cell) according to the manufacturer's instructions. T cell activation was initiated using CD3/CD28 activation beads (11456D; ThermoFisher Scientific) at a ratio of 25 μl dynabeads per 0.5×10^6 T-cells. Cells were activated with test compounds at 2 μM or DMSO in T cell activation Medium (RPMI (ThermoFisher Scientific) 10% FBS (South America origin), 10 mM Hepes (Sigma), 1× Non-Essential Amino Acid, 1 mM Sodium Pyruvate, 50 μM β-Mercaptoethanol, 100 U/ml penicillin, 100 μg/ml streptomycin and 2 mM Glutamax (ThermoFisher Scientific) for 72 h. For subsequent analysis, activating beads were magnetically removed prior staining.
For flow cytometric analysis of mitochondria 500 μl of Mitotracker Red (200 nM; ThermoFisher) was applied followed by surface staining.
Cell doublets and cells debris were excluded from the analysis by gating FSC-A vs FSC-H followed by SSC-A vs SSC-H dot plots and FSC-A vs SSC-A dot plots, respectively. eFluor 780 highly positive cells, i.e, dead cells, were gated out of the analysis. Data was acquired on Canto II (BD), Fortessa (BD) and Aurora (Cytek) cytometers and analyzed with FlowJo.

Take `O=c1oc2cc(O)ccc2c2ccc(O)cc12` [UA, Urolithin A]: in experiment [1] (72 h co-culture), the “killing of CEA-expressing human CRC organoids” value was “comparable killing efficacy”. For the same compound, the “CAR TSCM formation in CEA-specific CAR-T cells” value in experiment [1] (UA applied to previously frozen CAR-T cells) was “strongly enhanced”.
For the compound `O=c1oc2cc(O)ccc2c2ccc(OC3CCOCC3)cc12` [compound 33, 3-hydroxy-8-((tetrahydro-2H-pyran-4-yl)oxy)-6H-benzo[c]chromen-6-one], the “short-term spatial memory (time in new arm, Y-maze)” value in experiment [2] (1 mg/kg daily oral, 14 days post-surgery) is “able to prevent; also recorded: beneficial effects”. Further, in experiment [2] (1 mg/kg daily, day 1 to day 28), the “AT100 (hyperphosphorylated Tau) in neurons” value is “decrease”, the “activation of Iba1(+) microglial cells” value is “significantly decrease” and the “survival of NeuN(+) neurons in CA1” value was “significantly improved”. In addition, the “total distance traveled in Y-maze” value in experiment [2] (1 mg/kg/d p.o., 14 days post-surgery) is reported as “not different between groups”. Also, in the experiment with mouse T lymphocytes, the “increase in the percentage of Mitotracker positive cells vs DMSO” value came to 19%. The “percentage of Mitotracker positive cells” value in the experiment on mouse T lymphocytes (DMSO 44%) was determined as 52.5%.
